Experimental data taken from patent US20040097421A1 (priority 2000, published 2004).
Where a name gives a salt, the structure may show the parent alone. Read-outs that look alike come from different tables or passages of the source.

What was measured:
[1] = system: hematological tumors, primary cultures of human tumor cells from patients (PHTC); assay type: cell-based
[2] = system: solid tumors, primary cultures of human tumor cells from patients (PHTC); assay type: cell-based
[3] = system: Ovarian carcinoma tumor cell system; assay: Cytotoxic activity in different tumor models, ovarian carcinoma; assay type: cell-based, human; settings: Number 8
[4] = system: Breast cancer tumor cell system; assay: Cytotoxic activity in different tumor models, breast cancer; assay type: cell-based, human; settings: Number 4
[5] = system: NSC Lung cancer tumor cell system; assay: Cytotoxic activity in different tumor models, NSC lung cancer; assay type: cell-based, human; settings: Number 8
[6] = system: Prostate cancer tumor cell system; assay: Cytotoxic activity in different tumor models, prostate cancer; assay type: cell-based, human; settings: Number 1
[7] = system: Corpus cancer tumor cell system; assay: Cytotoxic activity in different tumor models, corpus cancer; assay type: cell-based, human; settings: Number 4
[8] = system: Adenocarcinoma tumor cell system; assay: Cytotoxic activity in different tumor models, adenocarcinoma; assay type: cell-based, human; settings: Number 5
[9] = system: 27 PHTC samples from 9 patients with hematological and 18 patients with solid tumours; assay: Circumvention of melphalan resistance, FMCA classification of PHTC samples; assay type: cell-based, human; settings: 4 μM
[10] = system: solid tumour types, cell lines and primary cultures of human tumour cells from patients; assay: Tumour type specific spectrum of antitumour activity, solid tumour types; assay type: cell-based; settings: for Activity in the listed diagnoses of Table 5: 4.0 μM; for Activity against solid tumour types (activity = at least 50% reduction in tumour cell survival): cell lines and PHTC
sarcoma 45 = settings: rats; cited from earlier work
[11] = system: panel of ten human tumour cell lines; assay type: cell-based
[12] = system: fresh human tumour specimens (fourteen hematological, thirteen solid); assay: FMCA, IC50 comparison in 27 fresh human tumour specimens; assay type: cell-based; settings: 27 human tumour samples, 82 to 0.131 μM
[13] = system: U937vcr (vincristine resistance subline); assay type: cell-based, human
RPMI 8322 melanoma cells = settings: cited from earlier work
[14] = system: hematological fresh human tumour specimens (PHTC); assay type: cell-based
[15] = system: solid fresh human tumour specimens (PHTC); assay type: cell-based
[16] = system: CEM/S (leukemia CCRF-CEM); assay: cells; assay type: cell-based; settings: Homo sapiens, 72 h, read-out: IC50 (μM), CEM/S
[17] = system: 8226S (myeloma RPMI 8226); assay: cells; assay type: cell-based, human; settings: read-out: IC50 (μM), 8226S
[18] = system: U-1752 (non-small cell lung cancer); assay: cells; assay type: cell-based; settings: Homo sapiens, read-out: IC50 (μM), U-1752
[19] = system: NCI-H611 (non-small cell lung cancer); assay: cells; assay type: cell-based; settings: Homo sapiens, read-out: IC50 (μM), NCI-H611
[20] = system: U-1568 (non-small cell lung cancer); assay: cells; assay type: cell-based; settings: Homo sapiens, read-out: IC50 (μM), U-1568
[21] = system: U1906L (small cell lung cancer); assay: cells; assay type: cell-based; settings: Homo sapiens, read-out: IC50 (μM), U1906L
[22] = system: U1285 (small cell lung cancer); assay: cells; assay type: cell-based; settings: Homo sapiens, read-out: IC50 (μM), U1285
[23] = system: U-1906E (small cell lung cancer); assay: cells; assay type: cell-based; settings: Homo sapiens, read-out: IC50 (μM), U-1906E
[24] = system: U1690 (small cell lung cancer); assay: cells; assay type: cell-based; settings: Homo sapiens, read-out: IC50 (μM), U1690
[25] = system: mitochondria from rat liver homogenates and Jensen sarcoma cells; settings: cited from earlier work
[26] = system: H69AR (doxorubicin resistance subline); assay type: cell-based, human

CCOC(=O)[C@H](Cc1ccc(F)cc1)NC(=O)[C@H](Cc1ccc(N(CCCl)CCCl)cc1)NC(=O)[C@@H]1CCCN1.Cl [Example J3, L-Prolinyl-L-melphalanyl-L-p-fluorophenylalanine ethyl ester hydrochloride]
Activity against hematological PHTC samples compared to melphalan and sarcolysine [1]: more active
Tumor cell survival index (%), Hematological tumors n = 7-11 [1]: 7%
Activity against solid tumor samples compared to melphalan, sarcolysine and P2 [2]: more active
Median response at 4.0 μM >50% reduction in tumor cell survival [3]: Yes
Median response at 4.0 μM >50% reduction in tumor cell survival [4]: Yes
Median response at 4.0 μM >50% reduction in tumor cell survival [5]: Yes
Median response at 4.0 μM >50% reduction in tumor cell survival [6]: Yes
Median response at 4.0 μM >50% reduction in tumor cell survival [7]: Yes
Median response at 4.0 μM >50% reduction in tumor cell survival [8]: Yes
Number of samples classified EDR (extreme drug resistance) [9]: 0 (0%)
Number of samples classified IDR (intermediate drug resistance) [9]: 4
Samples classified EDR (%) [9]: 0 (0%)
Activity in the listed diagnoses of Table 5 [10]: active
Activity against solid tumour types (activity = at least 50% reduction in tumour cell survival) [10]: showed activity against several types of solid tumours

CCOC(=O)[C@H](Cc1ccc(O)cc1)NC(=O)[C@H](Cc1ccc(N(CCCl)CCCl)cc1)NC(C)=O [astyron, N-acetyl-L-melphalanyl-L-tyrosine ethyl ester]
Sarcoma 45 growth (sarcoma 45): inhibited

CCOC(=O)[C@H](Cc1ccccc1)NC(=O)[C@@H](N)Cc1ccc(N(CCCl)CCCl)cc1.Cl [JV22, L-Melphalanyl-L-phenylalanine ethyl ester hydrochloride]
IC50 (μM), MEAN [11]: 0.48 µM

CCOC(=O)[C@H](Cc1ccc(F)cc1)NC(=O)[C@H](Cc1cccc(N(CCCl)CCCl)c1)NC(=O)[C@@H]1CCCN1 [Example P2, L-prolyl-m-L-sarcolysyl-p-L-fluorophenylalanine ethyl ester hydrochloride]
Comparison of IC50s (FIG. 2) [12]: more active than melphalan
IC50 [13]: 1.77 µM
Tumor cell survival index (%), Hematological tumors n = 7-11 [1]: 7%
Median response at 4.0 μM >50% reduction in tumor cell survival [3]: No
Median response at 4.0 μM >50% reduction in tumor cell survival [4]: No
Median response at 4.0 μM >50% reduction in tumor cell survival [5]: No
Median response at 4.0 μM >50% reduction in tumor cell survival [6]: No
Median response at 4.0 μM >50% reduction in tumor cell survival [7]: No
Median response at 4.0 μM >50% reduction in tumor cell survival [8]: No
Number of samples classified EDR (extreme drug resistance) [9]: 1
Number of samples classified IDR (intermediate drug resistance) [9]: 4
Samples classified EDR (%) [9]: 5%
Activity in the listed diagnoses of Table 5 [10]: inactive
Toxicity to RPMI 8322 melanoma cells compared with the other PTC peptides (RPMI 8322 melanoma cells): more toxic

CC[C@]1(O)C[C@H]2CN(CCc3c([nH]c4ccccc34)[C@@](C(=O)OC)(c3cc4c(cc3OC)N(C=O)[C@H]3[C@@](O)(C(=O)OC)[C@H](OC(C)=O)[C@]5(CC)C=CCN6CC[C@]43[C@@H]65)C2)C1 [Vincristine, vincristine]
Tumor cell survival index %, Hematological (n = 42) [14]: 39%
Tumor cell survival index %, Solid (n = 22) [15]: 93%
IC50 [16]: 0.08 µM
IC50 ([17]; Homo sapiens, RPMI-8226, 72 h): 0.01 µM
IC50 (μM), MEAN [11]: 30.1 µM

COc1cc([C@@H]2c3cc4c(cc3[C@@H](O[C@@H]3O[C@@H]5CO[C@@H](C)O[C@H]5[C@H](O)[C@H]3O)[C@H]3COC(=O)[C@H]23)OCO4)cc(OC)c1O [Etoposide, etoposide]
Tumor cell survival index %, Hematological (n = 42) [14]: 47%
Tumor cell survival index %, Solid (n = 22) [15]: 81%

Nc1ccn([C@@H]2O[C@H](CO)[C@@H](O)[C@@H]2O)c(=O)n1 [AraC]
Tumor cell survival index %, Solid (n = 22) [15]: 102%

N.N.[Cl][Pt][Cl] [Cisplatin, cisplatin]
IC50 (μM), MEAN [11]: 18.0 µM

CC(C)OC(=O)[C@H](Cc1ccc(F)cc1)NC(=O)[C@@H](N)Cc1ccc(N(CCCl)CCCl)cc1.Cl [JV28, L-Melphalanyl-L-p-fluorophenylalanine isopropyl ester hydrochloride]
Activity against hematological PHTC samples compared to melphalan and sarcolysine [1]: more active
Activity against solid tumor samples compared to melphalan, sarcolysine and P2 [2]: more active
Median response at 4.0 μM >50% reduction in tumor cell survival [3]: Yes
Median response at 4.0 μM >50% reduction in tumor cell survival [4]: Yes
Median response at 4.0 μM >50% reduction in tumor cell survival [5]: Yes
Median response at 4.0 μM >50% reduction in tumor cell survival [6]: Yes
Median response at 4.0 μM >50% reduction in tumor cell survival [8]: Yes
Number of samples classified EDR (extreme drug resistance) [9]: 1
Number of samples classified IDR (intermediate drug resistance) [9]: 2
Samples classified EDR (%) [9]: 6%
Activity in the listed diagnoses of Table 5 [10]: active in most of these diagnoses
Activity against solid tumour types (activity = at least 50% reduction in tumour cell survival) [10]: showed activity against several types of solid tumours

COc1cccc2c1C(=O)c1c(O)c3c(c(O)c1C2=O)C[C@@](O)(C(=O)CO)C[C@@H]3O[C@H]1C[C@H](N)[C@H](O)[C@H](C)O1 [Doxorubicin, doxorubicin]
Tumor cell survival index %, Hematological (n = 42) [14]: 29%
Tumor cell survival index %, Solid (n = 22) [15]: 97%
IC50 [16]: 0.18 µM
IC50 ([17]; Homo sapiens, RPMI-8226, 72 h): 0.13 µM
IC50 (μM), MEAN [11]: 3.51 µM
IC50 [18]: 0.42 µM
IC50 [19]: ≥ 183 µM
IC50 [20]: ≥ 183 µM
IC50 [21]: 0.92 µM
IC50 [22]: 0.52 µM
IC50 [23]: 0.44 µM
IC50 [24]: 2.21 µM

CC(C)[C@H](NC(=O)[C@@H](N)Cc1ccc(N(CCCl)CCCl)cc1)C(=O)O [salin, L-melphalanyl-L-valine]
Oxidative phosphorylation in mitochondria [25]: disrupted

CCOC(=O)[C@H](CC(C)C)NC(=O)[C@H](Cc1ccc(N(CCCl)CCCl)cc1)NC(C)=O [asaley]
Sarcoma 45 growth (sarcoma 45): inhibited

CCOC(=O)[C@H](Cc1ccc(O)cc1)NC(=O)[C@@H](N)Cc1ccc(N(CCCl)CCCl)cc1.Cl [JV24, L-Melphalanyl-L-tyrosine ethyl ester hydrochloride]
IC50 (μM), MEAN [11]: 1.05 µM

CCOC(=O)[C@H](Cc1ccc(F)cc1)NC(=O)[C@@H](N)Cc1ccc(N(CCCl)CCCl)cc1.Cl [Example J1, L-Melphalanyl-L-p-fluorophenylalanine ethyl ester hydrochloride]
Comparison of IC50s (FIG. 2) [12]: in all cases was more active than P2
IC50 [26]: 0.9 µM
Median response at 4.0 μM >50% reduction in tumor cell survival [3]: Yes
Median response at 4.0 μM >50% reduction in tumor cell survival [4]: Yes
Median response at 4.0 μM >50% reduction in tumor cell survival [5]: Yes
Median response at 4.0 μM >50% reduction in tumor cell survival [7]: No
Median response at 4.0 μM >50% reduction in tumor cell survival [8]: Yes
Number of samples classified EDR (extreme drug resistance) [9]: 1
Number of samples classified IDR (intermediate drug resistance) [9]: 3
Samples classified EDR (%) [9]: 6%
Activity in the listed diagnoses of Table 5 [10]: active in most of these diagnoses
Activity against solid tumour types (activity = at least 50% reduction in tumour cell survival) [10]: showed activity against several types of solid tumours

CCC1=C[C@@H]2CN(C1)Cc1c([nH]c3ccccc13)[C@@](C(=O)OC)(c1cc3c(cc1OC)N(C)[C@H]1[C@@](O)(C(=O)OC)[C@H](OC(C)=O)[C@]4(CC)C=CCN5CC[C@]31[C@@H]54)C2 [Vinorelbine, vinorelbine]
Tumor cell survival index %, Hematological (n = 42) [14]: 50%
Tumor cell survival index %, Solid (n = 22) [15]: 73%

CCOC(=O)[C@H](Cc1ccc(N(CCCl)CCCl)cc1)NC(=O)[C@@H](N)Cc1ccc(N(CCCl)CCCl)cc1 [JV27, L-Melphalanyl-L-melphalan ethyl ester hydrochloride]
IC50 [17]: 1.01 µM

CC(=O)O[C@@]12CO[C@@H]1C[C@H](O)[C@@]1(C)C(=O)[C@H](O)C3=C(C)[C@@H](OC(=O)[C@H](O)[C@@H](NC(=O)OC(C)(C)C)c4ccccc4)C[C@@](O)([C@@H](OC(=O)c4ccccc4)[C@H]21)C3(C)C [Docetaxel, docetaxel]
Tumor cell survival index %, Solid (n = 22) [15]: 67%
IC50 [18]: 0.46 µM
IC50 [19]: 1.1 µM
IC50 [20]: 5.94 µM
IC50 [21]: 0.1 µM
IC50 [22]: 0.1 µM
IC50 [23]: 0.1 µM
IC50 [24]: 7.7 µM
